EC50 data for six molecules are collected here from US8754220B2, “Quinolizidinone carboxamide M1 receptor positive allosteric modulators” (Merck Sharp & Dohme Corp., priority 2009, dated 2014).

This test has as its target T1, acetylcholine muscarinic M1 receptor (CHOnfat/hM1 cells) (Homo sapiens, UniProt P11229).
T1 construct: expressed in transfected cells; host or cells: CHOnfat (CHO cells; selected with Geneticin)
T1 sequence (P11229 1-460): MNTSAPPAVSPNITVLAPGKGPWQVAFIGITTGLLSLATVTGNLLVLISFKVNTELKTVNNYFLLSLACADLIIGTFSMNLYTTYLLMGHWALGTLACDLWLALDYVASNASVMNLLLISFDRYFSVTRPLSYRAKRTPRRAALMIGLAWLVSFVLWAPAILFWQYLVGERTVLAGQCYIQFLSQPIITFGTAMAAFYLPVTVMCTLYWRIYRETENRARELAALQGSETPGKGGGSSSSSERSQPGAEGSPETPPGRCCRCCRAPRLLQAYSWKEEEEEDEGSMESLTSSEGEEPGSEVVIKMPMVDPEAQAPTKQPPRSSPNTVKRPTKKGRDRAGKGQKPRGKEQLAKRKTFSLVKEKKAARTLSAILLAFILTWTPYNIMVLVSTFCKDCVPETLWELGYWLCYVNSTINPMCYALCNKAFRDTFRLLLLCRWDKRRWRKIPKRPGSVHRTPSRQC
The test can be described thus: FLIPR intracellular calcium assay for M1 positive allosteric modulator activity (acetylcholine EC20). Format: cell-based. The procedure: The assay studies the effect of one or several concentrations of test compounds on basal or acetylcholine-stimulated Ca^2+ levels using FLIPR.
Compounds are prepared and subjected to a preincubation period of 4 min. Thereafter, a single EC20 concentration of acetylcholine is added to each well (3 nM final). The intracellular Ca^2+ level of each sample is measured and compared to an acetylcholine control to determine any modulatory activity.
Cells: CHOnfat/hM1, hM2, hM3 or hM4 cells are plated 24 hr before the assay at a density of 18,000 cells/well (100 μL) in a 384 well plate. CHOnfat/hM1 and CHOnfat/hM3 Growth Medium: 90% DMEM (Hi Glucose); 10% HI FBS; 2 mM L-glutamine; 0.1 mM NEAA; Pen-Strep; and 1 mg/ml Geneticin, are added. For M2Gqi5CHOnfat and M4Gqi5CHOnfat cells, an additional 600 μg/ml hygromycin is added.
Equipment: 384 well plate, 120 μL addition plate; 96-well Whatman 2 ml Uniplate Incubator, 37° C., 5% CO2; Skatron EMBLA-384 Plate Washer; Multimek Pipetting System; Genesis Freedom 200 System; Mosquito System; Temo Nanoliter Pipetting System; and FLIPR^384 Fluorometric Imaging Plate Reader System are used.
Buffers. Assay Buffer: Hanks Balanced Salt Solution, with 20 mM Hepes, 2.5 mM Probenecid (Sigma P-8761) first dissolved in 1 N NaOH, 1% Bovine Serum Albumin (Sigma A-9647). Dye Loading Buffer: Assay Buffer plus 1% Fetal Bovine Serum and Fluo-4AM/Pluronic Acid Mixture. 2 mM Fluo-4AM ester stock in DMSO (Molecular Probes F-14202) Concentration of 2 μM in buffer for a final concentration of 1 μM in Assay. 20% Pluronic Acid Solution stock, with concentration of 0.04% in Buffer, 0.02% in Assay.
65 μL of 2 mM Fluo-4AM are mixed with 130 μL of 20% Pluronic Acid. The resulting solution and 650 μL FBS is added to the assay buffer for a total volume of 65 mL. Positive Controls: 4-Br-A23187: 10 mM in DMSO; final concentration 10 μM. Acetylcholine: 10 mM in water, working stock at both 20 μM and 30 μM in assay buffer, final concentration of 10 μM. This is used to check the maximum stimulation of the CHOK1/hM1 cells. 20 μM (2×) acetylcholine is added in the preincubation part of the assay, and the 30 μM (3×) stock is added in the second part. (EC20) Acetylcholine: 10 mM in water, working stock of 9 nM (3×), and final concentration in assay is 3 nM. This is used after the preincubation with test compounds. Addition of the EC20 Acetylcholine to each well with a test compound will ascertain any modulator activity. 24 wells contain 3 nM Acetylcholine alone as a control.
Screening Plate: Compounds are titrated in 96-well plates (columns 2-11), 100% DMSO, started at a concentration of 15 mM (150× stock concentration), and 3-fold serial dilutions using Genesis Freedom200 System. Four 96-well plates are combined into a 384-well plate using Mosquito Nanoliter Pipetting System by transferring 1 μl of serial diluted compounds to each well, and 1 mM acetylcholine (100× stock concentration) were added as a control. Using Temo, 49 μl assay buffer is added to each well of the 384-well plate right before assay.
In a 96-well Whatman 2 ml Uniplate, 9 nM Acetylcholine (3×) is pipetted into wells corresponding to the screening compounds, and into control wells. The 30 μM acetylcholine control (3×) is added into control wells, and the 3× agonist plate is transferred into a 384 well plate.
Cells are washed three times with 100 μL of buffer, leaving 30 μL of buffer in each well. Using Multimek, 30 μL of Dye Loading Buffer is added into each well and incubated at 37° C., 5% CO2 for up to one hr.
After 60 min, the cells are washed three times with 100 μL of buffer, leaving 30 μL of buffer in each well. The cell plate, screening plate, and agonist addition plates are placed on the platform in the FLIPR and the door closed. A signal test to check background fluorescence and basal fluorescence signal is performed. Laser intensity is adjusted if necessary. […]
In general terms: Calcium flux is commonly read through the fluorescence of an indicator in the cells.

Where [1] appears, read: CHOnfat/hM1 cells, 4 min preincubation, then EC20 acetylcholine (3 nM final), FLIPR Ca2+, read-out: IP Value (inflection point).

Where two headings read alike, the source gives them in different places.

`N#CC1(c2ccccn2)CCN(Cc2cc(C(=O)NC3CCCNC3)c(=O)n3ccccc23)CC1` (stereo not drawn) [Example 19, 1-[(4-Cyano-4-pyridin-2-ylpiperidin-1-yl)methyl]-4-oxo-N-piperidin-3-yl-4H-quinolizine-3-carboxamide]: the EC50 under setting [1] turned out to be 1.8 µM.

Take `COC(=O)N1CCC(NC(=O)c2cc(CN3CCC(C#N)(c4ccccn4)CC3)c3ccccn3c2=O)CC1` [Example 20, Methyl 4-[({1-[(4-cyano-4-pyridin-2-ylpiperidin-1-yl)methyl]-4-oxo-4H-quinolizin-3-yl}carbonyl)amino]piperidine-1-carboxylate]: the EC50 under setting [1] worked out at 0.6 µM. Consider `N#Cc1ccnc(C2(C#N)CCN(Cc3cc(C(=O)N[C@H]4CCCC[C@@H]4O)c(=O)n4ccccc34)CC2)c1` [Example 22, 1-{[4-Cyano-4-(4-cyanopyridin-2-yl)piperidin-1-yl]methyl}-N-[(1S,2S)-2-hydroxycyclohexyl]-4-oxo-4H-quinolizine-3-carboxamide], for which, under setting [1], the EC50 amounted to 0.28 µM. Turning to `N#CC1(c2cc(CF)ccn2)CCN(Cc2cc(C(=O)N[C@H]3CCCC[C@@H]3O)c(=O)n3ccccc23)CC1` [Example 23, 1-({4-Cyano-4-[4-(fluoromethyl)pyridine-2-yl]piperidin-1-yl}methyl)-N-[(1S,2S)-2-hydroxycyclohexyl]-4-oxo-4H-quinolizine-3-carboxamide], the EC50 is 0.034 µM. As to `N#CC1(c2cc(C(F)F)ccn2)CCN(Cc2cc(C(=O)N[C@H]3CCCC[C@@H]3O)c(=O)n3ccccc23)CC1` [Example 24, 1-({4-Cyano-4-[4-(difluoromethyl)pyridin-2-yl]piperidin-1-yl}methyl)-N-[(1S,2S)-2-hydroxycyclohexyl]-4-oxo-4H-quinolizine-3-carboxamide], the EC50 is 0.025 µM.

On to `Cc1cccn2c(=O)c(C(=O)NC3CCOCC3)cc(CN3CCC(C#N)(c4ccccn4)CC3)c12` [Example 25, 1-[(4-Cyano-4-pyridin-2-ylpiperidin-1-yl)methyl]-9-methyl-4-oxo-N-(tetrahydro-2H-pyran-4-yl)-4H-quinolizine-3-carboxamide], for which the EC50 under setting [1] is 2.1 µM.
